Measured values reported in patent publication US20060234278A1, “Sequences used to identify if a female mammal comprises a mutation in the alpha-fetoprotein sequence(S) or a partial or total deletion of the alpha-fetoprotein sequence(S)” (priority 1999, published 2006).

Tests used:
Assay type in all cases: in vivo, mouse
estrogen synthesis = test: Serum estradiol levels of ATD-treated gestating females by RIA assay; conditions: heterozygous gestating females, daily s.c. 4 mg ATD from day 13.5 of gestation; 10 pg/ml is the RIA detection limit
Method: (§1) Females heterozygous for the Afp tm2Ibmm allele (CD1 strain, 8th backcross level) were mated with Afp tm2Ibmm homozygous males and housed under the conditions described above. They then received a daily subcutaneous injection in the neck of 4 mg of the aromatase inhibitor ATD (1, 4, 6-androstatrien-3,17-dione, Steraloids, Newport, R.I.) dissolved in propylene glycol, from the 13.5th day of gestation (day 0.5 is defined as the day of vaginal plug detection) until the end of gestation. Controls were injected with propylene glycol only. Pups were born naturally or retrieved by Caesarian operation on embryonic day 20.5. Blood from the mothers was taken from the hart and estradiol levels were measured by classical RIA assay. Fertility of female pups was tested at the age of 2-3 months. In parallel, sisters of the female pups tested were dissected at the age of 3 months and total RNA was extracted from the pituitary and the hypothalamus as described above. cDNA was obtained using the TaqMan Reverse Transcription Reagents kit (Applied Biosystems) and real time PCR was performed on the 7300 Real Time PCR System (Applied Biosystems) with the Platinum Quantitative PCR SuperMix-UDG kit (Invitrogen) and the TaqMan Gene Expression Assays (Applied Biosystems) for pituitary genes except for Egr1. […]

[1] = system: Ucp1, Isp2, Egr1, Gnrhr expression in the pituitary; test: Real time PCR gene expression in pituitary of prenatally ATD-treated AFP KO females; conditions: prenatal ATD-treated AFP KO females (n=7)
Method: as §1

[2] = system: Gnrh2 gene expression in the hypothalamus; test: Real time PCR Gnrh2 gene expression in hypothalamus of prenatally ATD-treated AFP KO females; conditions: prenatal ATD-treated AFP KO mice (n=7), normalized to Hprt
Method: as §1

AFP KO females = test: Fertility of AFP KO female pups after prenatal ATD treatment
Method: as §1

C[C@]12C=CC(=O)C=C1C=C[C@@H]1[C@@H]2CC[C@]2(C)C(=O)CC[C@@H]12 [ATD, 1,4,6-androstatrien-3,17-dione]
Serum estradiol levels (estrogen synthesis): < 10 pg/mL | Pituitary gene expression levels vs untreated KO females ([1]; normalized to Hprt, p=0.044): statistically different from those of the untreated KO females | Pituitary gene expression levels vs heterozygous untreated females ([1]; p=0.508, except Isp2 (p=0.014)): not statistically different from those of the heterozygous, untreated females | Gnrh2 expression level in hypothalamus [2]: not increased | Fertility of female pups (AFP KO females; AFP KO and heterozygous pups from ATD-injected mothers, tested at 2-3 months, 8 KO and 17 heterozygous pups tested): fertile | Litter size (AFP KO females; litters born to prenatally ATD-treated AFP KO and heterozygous females): normal size
